Results from ChEMBL document CHEMBL1201862, “PubChem BioAssay data set” (2004).
Values belong to the compound of their own block, whether it stands above or below them. Active and inactive are the calls of the source.

What was measured:
Trypsin = Trypsin (Sus scrofa, UniProt P00761); assay: porcine trypsin inhibitors, dose response, selectivity assay for Rce1 protease inhibitor project, biochemical, quenched peptide fluorescence, cherry-pick (AID 488789)
CAAX prenyl protease 2 = target: T1, CAAX prenyl protease 2 (Saccharomyces cerevisiae S288c, UniProt Q03530); assay type: biochemical
T1 sequence (Q03530 whole entry): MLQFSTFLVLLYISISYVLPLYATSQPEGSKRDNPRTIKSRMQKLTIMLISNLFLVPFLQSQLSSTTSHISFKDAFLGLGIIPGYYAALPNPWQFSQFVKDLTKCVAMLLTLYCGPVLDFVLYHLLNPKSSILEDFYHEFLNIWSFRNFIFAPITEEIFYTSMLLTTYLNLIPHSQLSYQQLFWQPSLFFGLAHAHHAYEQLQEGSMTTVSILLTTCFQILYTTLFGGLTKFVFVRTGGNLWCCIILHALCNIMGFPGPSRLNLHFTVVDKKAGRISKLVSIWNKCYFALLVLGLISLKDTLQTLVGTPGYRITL

CAAX prenyl protease 1 = CAAX prenyl protease 1 (Saccharomyces cerevisiae S288c, UniProt P47154); assay: Ste24 protease inhibitors, dose response, biochemical, S. cerevisiae, plate reader, cherry-pick (AID 488815)
Sequence of CAAX prenyl protease 1 (P47154 whole entry): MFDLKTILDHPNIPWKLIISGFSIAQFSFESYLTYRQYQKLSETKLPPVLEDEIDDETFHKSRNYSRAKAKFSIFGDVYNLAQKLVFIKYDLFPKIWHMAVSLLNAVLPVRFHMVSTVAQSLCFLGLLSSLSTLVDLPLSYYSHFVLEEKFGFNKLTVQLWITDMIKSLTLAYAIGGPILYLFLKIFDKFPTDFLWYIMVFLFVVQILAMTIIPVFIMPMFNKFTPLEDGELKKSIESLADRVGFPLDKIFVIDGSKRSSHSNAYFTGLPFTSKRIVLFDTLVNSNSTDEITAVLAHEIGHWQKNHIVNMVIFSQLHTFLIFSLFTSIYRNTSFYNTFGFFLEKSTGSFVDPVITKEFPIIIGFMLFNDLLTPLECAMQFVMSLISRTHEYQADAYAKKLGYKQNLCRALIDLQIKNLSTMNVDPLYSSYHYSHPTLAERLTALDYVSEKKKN

[1] = target: Lysine-specific demethylase 4C (Homo sapiens, UniProt Q9H3R0); assay: GASC-1 (JMJD2C) histone demethylase inhibitors, dose response, biochemical, DELFIA europium, cherry-picked samples (AID 488835); assay type: functional
Sequence of Lysine-specific demethylase 4C (Q9H3R0 whole entry): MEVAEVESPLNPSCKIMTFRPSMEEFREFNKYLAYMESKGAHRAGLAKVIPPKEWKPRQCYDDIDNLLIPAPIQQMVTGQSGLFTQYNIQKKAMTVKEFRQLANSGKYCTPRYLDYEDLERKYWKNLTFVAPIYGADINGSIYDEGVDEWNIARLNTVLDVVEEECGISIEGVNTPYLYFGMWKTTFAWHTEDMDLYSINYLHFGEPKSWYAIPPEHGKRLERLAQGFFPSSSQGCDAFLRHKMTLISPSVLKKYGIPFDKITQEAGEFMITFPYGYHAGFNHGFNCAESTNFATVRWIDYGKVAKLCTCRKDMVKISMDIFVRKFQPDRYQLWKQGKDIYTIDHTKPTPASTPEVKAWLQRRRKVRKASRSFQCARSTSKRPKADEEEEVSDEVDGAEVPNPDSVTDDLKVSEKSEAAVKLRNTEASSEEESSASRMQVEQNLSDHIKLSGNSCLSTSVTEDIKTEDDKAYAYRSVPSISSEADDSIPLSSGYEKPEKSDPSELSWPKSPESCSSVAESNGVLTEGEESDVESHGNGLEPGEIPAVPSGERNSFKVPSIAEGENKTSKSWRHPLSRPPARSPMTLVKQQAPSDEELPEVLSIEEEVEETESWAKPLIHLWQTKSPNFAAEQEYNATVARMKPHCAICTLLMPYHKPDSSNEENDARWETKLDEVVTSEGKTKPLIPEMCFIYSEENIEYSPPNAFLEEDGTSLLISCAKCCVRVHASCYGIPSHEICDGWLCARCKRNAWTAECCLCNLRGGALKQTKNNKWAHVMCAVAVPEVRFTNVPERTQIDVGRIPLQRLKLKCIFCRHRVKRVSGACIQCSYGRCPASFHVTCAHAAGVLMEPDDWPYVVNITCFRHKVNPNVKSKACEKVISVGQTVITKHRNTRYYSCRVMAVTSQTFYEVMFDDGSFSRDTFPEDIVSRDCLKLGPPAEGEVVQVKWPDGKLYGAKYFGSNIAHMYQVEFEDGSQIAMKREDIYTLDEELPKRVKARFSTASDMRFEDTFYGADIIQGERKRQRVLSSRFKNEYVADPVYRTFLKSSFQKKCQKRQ

[2] = target: Lysine-specific demethylase 4A (Homo sapiens, UniProt O75164); assay: JMJD2A histone demethylase inhibitors, dose response, selectivity assay for GASC-1 inhibitor project, biochemical, DELFIA europium, cherry-picked samples (AID 488840)
Sequence of Lysine-specific demethylase 4A (O75164 whole entry): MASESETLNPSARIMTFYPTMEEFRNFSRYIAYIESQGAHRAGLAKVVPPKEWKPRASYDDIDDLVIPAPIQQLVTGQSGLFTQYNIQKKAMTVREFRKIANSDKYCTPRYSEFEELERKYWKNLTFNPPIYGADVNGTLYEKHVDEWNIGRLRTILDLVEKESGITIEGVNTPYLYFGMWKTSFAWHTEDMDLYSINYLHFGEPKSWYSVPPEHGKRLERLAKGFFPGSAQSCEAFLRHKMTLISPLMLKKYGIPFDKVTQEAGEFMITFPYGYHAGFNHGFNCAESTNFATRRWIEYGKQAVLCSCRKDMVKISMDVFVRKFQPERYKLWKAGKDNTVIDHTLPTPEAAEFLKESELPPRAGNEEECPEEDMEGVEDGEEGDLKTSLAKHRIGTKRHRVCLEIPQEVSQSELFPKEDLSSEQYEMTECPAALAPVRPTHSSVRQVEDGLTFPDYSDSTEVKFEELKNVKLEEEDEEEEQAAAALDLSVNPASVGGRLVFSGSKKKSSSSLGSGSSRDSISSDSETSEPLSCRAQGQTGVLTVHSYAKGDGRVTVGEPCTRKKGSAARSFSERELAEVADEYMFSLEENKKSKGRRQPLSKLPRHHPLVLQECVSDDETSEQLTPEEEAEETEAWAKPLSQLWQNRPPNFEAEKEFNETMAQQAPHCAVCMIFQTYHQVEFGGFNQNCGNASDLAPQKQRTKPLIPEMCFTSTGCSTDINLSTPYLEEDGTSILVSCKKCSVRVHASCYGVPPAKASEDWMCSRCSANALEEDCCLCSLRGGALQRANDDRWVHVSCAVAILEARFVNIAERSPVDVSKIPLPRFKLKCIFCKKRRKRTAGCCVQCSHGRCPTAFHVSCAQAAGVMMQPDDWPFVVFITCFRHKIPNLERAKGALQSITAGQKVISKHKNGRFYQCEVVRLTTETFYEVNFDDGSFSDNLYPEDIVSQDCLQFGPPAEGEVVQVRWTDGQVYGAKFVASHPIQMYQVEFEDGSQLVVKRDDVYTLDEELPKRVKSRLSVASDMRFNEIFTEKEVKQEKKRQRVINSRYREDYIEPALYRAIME

A-375 [3] = assay: A375 melanoma cell viability reduction, dose response, counter-screen for MITF modulator project, cherry-pick samples, set 2 (AID 540335); assay type: functional, cell-based; settings: Homo sapiens
A-375 [4] = assay: MITF: Counter assay: A375 proliferation Measured in Cell-Based System Using Plate Reader - 2084-03_Inhibitor_Dose_DryPowder_Activity. [Related pubchem assays (depositor defined):AID488944]; assay type: functional; settings: Homo sapiens
[5] = target: T2, Tyrosine-protein phosphatase non-receptor type 22 (Homo sapiens, UniProt Q9Y2R2); assay type: functional
T2 sequence (Q9Y2R2 whole entry): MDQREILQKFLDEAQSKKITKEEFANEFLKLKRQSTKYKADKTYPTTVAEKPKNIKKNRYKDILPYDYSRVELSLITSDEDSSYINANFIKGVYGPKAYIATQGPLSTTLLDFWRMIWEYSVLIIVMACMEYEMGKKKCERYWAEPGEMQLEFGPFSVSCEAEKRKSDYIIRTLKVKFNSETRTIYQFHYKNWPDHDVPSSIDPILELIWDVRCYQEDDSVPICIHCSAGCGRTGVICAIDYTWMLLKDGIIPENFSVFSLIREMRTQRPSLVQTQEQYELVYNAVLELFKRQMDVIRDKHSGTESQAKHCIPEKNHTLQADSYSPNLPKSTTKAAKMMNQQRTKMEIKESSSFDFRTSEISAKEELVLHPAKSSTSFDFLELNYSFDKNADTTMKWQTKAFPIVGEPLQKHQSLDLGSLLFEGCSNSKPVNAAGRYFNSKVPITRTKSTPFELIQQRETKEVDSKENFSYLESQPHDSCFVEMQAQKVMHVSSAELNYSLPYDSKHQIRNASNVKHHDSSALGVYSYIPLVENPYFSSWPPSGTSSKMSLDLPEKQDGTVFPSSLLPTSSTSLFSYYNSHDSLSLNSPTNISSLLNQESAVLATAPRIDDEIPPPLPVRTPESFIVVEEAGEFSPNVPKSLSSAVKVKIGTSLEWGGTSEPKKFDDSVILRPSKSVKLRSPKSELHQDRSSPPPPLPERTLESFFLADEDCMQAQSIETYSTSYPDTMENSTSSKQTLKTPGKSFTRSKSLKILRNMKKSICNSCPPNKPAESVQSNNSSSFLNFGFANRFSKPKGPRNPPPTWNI

[6] = target: T3, Heat shock factor protein 1 (Mus musculus, UniProt P38532); assay: HSF1 potentiators in luciferase reporter cells, confirmation, cell-based, NIH3T3, luminescence, dose retest (AID 435004); assay type: functional;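 further: stress induced by proteasome inhibitor MG132 added 30 min after compound; luciferase reporter driven by HSF1 response element in NIH3T3 cells; actives raise luminescence as potentiators of the MG132 stress response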
T3 sequence (P38532 whole entry): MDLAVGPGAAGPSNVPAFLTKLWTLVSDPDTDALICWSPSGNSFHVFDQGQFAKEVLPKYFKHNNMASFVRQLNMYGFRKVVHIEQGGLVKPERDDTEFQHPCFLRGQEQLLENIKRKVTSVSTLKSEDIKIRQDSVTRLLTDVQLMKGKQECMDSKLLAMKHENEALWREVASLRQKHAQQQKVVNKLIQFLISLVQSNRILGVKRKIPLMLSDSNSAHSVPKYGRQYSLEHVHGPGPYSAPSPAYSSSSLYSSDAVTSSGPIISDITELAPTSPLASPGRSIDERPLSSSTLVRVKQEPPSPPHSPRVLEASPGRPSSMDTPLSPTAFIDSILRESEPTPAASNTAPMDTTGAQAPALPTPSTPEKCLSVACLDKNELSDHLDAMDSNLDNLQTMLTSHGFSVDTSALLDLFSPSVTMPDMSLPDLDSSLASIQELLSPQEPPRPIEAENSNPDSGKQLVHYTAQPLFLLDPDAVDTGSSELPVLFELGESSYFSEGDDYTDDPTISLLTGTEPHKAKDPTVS

[7] = target: T4, Tyrosine-protein phosphatase non-receptor type 7 (Homo sapiens, UniProt P35236); assay type: functional
T4 sequence (P35236 whole entry): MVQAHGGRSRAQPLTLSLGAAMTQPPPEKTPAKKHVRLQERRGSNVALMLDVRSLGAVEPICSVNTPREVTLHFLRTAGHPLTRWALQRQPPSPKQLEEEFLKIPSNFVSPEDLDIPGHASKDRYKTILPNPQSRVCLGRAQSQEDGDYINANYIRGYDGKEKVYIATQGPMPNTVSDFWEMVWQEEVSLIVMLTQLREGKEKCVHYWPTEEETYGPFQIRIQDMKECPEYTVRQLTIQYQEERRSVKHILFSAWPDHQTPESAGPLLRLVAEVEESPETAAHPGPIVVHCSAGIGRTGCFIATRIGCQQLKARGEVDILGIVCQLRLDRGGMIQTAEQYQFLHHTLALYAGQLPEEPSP

[8] = target: T2, Tyrosine-protein phosphatase non-receptor type 22; assay type: functional; remark: listed apart in the source
[9] = target: T5, Delta-type opioid receptor (Homo sapiens, UniProt P41143); assay: HTS Image-Based Screen for Antagonists of the DOR Receptor. [Related pubchem assays (depositor defined):AID1777, AID1785, AID1786, AID2133]; assay type: functional
T5 sequence (P41143 whole entry): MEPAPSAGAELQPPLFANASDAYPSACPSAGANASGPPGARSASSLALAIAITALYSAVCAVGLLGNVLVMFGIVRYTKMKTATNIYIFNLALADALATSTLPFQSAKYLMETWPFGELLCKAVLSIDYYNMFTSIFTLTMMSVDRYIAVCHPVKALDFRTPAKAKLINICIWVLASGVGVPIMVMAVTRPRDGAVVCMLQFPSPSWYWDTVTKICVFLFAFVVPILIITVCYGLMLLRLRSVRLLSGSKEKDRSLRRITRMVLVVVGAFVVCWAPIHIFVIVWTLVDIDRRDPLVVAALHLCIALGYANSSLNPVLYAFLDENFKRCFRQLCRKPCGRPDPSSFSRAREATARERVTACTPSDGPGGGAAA

[10] = target: T6, Kappa-type opioid receptor (Homo sapiens, UniProt P41145); assay type: functional
T6 sequence (P41145 whole entry): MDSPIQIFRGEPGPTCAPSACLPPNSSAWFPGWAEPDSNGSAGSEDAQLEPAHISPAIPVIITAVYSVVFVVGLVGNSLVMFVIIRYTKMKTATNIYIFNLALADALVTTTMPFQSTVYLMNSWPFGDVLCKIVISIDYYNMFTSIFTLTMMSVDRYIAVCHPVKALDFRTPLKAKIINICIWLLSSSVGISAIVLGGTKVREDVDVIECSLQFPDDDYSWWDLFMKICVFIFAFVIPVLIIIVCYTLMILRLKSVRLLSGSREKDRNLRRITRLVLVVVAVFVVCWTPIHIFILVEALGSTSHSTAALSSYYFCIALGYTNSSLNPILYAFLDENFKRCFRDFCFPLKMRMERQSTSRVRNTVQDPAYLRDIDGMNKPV

[11] = target: T5, Delta-type opioid receptor; assay: HTS Image-Based Screen for Agonists of the DOR Receptor. [Related pubchem assays (depositor defined):AID1777, AID1786, AID2133]; assay type: functional
Mu-type opioid receptor = Mu-type opioid receptor (Homo sapiens, UniProt P35372); assay: HTS Image-Based Screen for Agonists of the MOR Receptor. [Related pubchem assays (depositor defined):AID1777, AID1785, AID1786, AID2133]; assay type: functional;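 further: imaging of beta-arrestin GFP recruitment into spots after receptor activation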
Sequence of Mu-type opioid receptor (P35372 whole entry): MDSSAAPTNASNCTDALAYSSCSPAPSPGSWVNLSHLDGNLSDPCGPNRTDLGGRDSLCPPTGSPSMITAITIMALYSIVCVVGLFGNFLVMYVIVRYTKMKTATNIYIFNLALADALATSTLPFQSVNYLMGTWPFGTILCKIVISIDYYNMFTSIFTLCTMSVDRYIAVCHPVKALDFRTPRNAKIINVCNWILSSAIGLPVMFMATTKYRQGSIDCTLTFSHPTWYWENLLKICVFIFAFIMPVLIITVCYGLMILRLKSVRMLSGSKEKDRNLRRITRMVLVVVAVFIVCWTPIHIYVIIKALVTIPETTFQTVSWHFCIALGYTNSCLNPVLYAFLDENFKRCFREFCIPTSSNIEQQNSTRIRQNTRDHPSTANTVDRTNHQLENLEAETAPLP

[12] = target: T6, Kappa-type opioid receptor; assay type: functional; remark: listed apart in the source

Sequence of Trypsin (P00761 whole entry): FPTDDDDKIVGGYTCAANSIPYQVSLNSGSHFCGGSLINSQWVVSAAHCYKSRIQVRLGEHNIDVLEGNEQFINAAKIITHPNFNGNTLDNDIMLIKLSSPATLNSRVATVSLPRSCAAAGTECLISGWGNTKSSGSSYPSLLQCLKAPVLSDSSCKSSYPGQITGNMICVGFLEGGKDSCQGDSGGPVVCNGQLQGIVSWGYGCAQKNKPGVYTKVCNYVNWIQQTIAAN

Compound: Cc1cc(C)n2cc(CSc3ncccc3C(=O)O)nc2n1
AC50 (Trypsin): 10.8 µM (active)
AC50 (CAAX prenyl protease 2): 57.7 µM (active)
AC50 (CAAX prenyl protease 1): 6.59 µM (active)

Compound: c1cc(CSc2nnc(-c3ccc4c(c3)OCO4)o2)ccn1
AC50 (A-375 [3]): > 35 µM (active)
AC50 (A-375 [4]): > 35 µM (active)

Continued, values first:

AC50 [1]: 5.06 µM (active)
AC50 [2]: 17.5 µM (active)
Compound: CCC(Sc1nc(N)c(NC(=O)c2ccc(Br)o2)c(O)n1)C(=O)O (stereo unspecified)

IC50 [5]: > 79.4 µM (inactive)
EC50 [6]: > 260 µM (inactive)
IC50 [7]: > 79.4 µM (inactive)
IC50 [8]: > 79.4 µM (inactive)
Compound: O=C(CC1C(=O)N(Cc2ccccc2)C(=S)N1CCN1CCOCC1)Nc1ccc(F)cc1 (stereo unspecified)

IC50 [9]: > 32 µM (inactive)
EC50 [10]: 3.33 µM
EC50 [11]: > 32 µM (inactive)
EC50 (Mu-type opioid receptor): > 32 µM (inactive)
EC50 [12]: 3.82 µM
Compound: CC(Sc1nnc(CN2CCCC2)n1Cc1ccccc1)C(=O)Nc1ccc(F)cc1 (stereo unspecified)
